{"source": "patent US9757399B2", "about": "“Butyrylcholinesterase inhibitors” (priority 2006, dated 2017)", "key": {"[1]": {"target": "T1, Acetylcholinesterase (from electric eel) (Electrophorus electricus, UniProt O42275)", "T1 construct": "Acetylcholinesterase (from electric eel); purchased Sigma; host or cells: electric eel (natural source)", "T1 sequence (O42275 24-633)": "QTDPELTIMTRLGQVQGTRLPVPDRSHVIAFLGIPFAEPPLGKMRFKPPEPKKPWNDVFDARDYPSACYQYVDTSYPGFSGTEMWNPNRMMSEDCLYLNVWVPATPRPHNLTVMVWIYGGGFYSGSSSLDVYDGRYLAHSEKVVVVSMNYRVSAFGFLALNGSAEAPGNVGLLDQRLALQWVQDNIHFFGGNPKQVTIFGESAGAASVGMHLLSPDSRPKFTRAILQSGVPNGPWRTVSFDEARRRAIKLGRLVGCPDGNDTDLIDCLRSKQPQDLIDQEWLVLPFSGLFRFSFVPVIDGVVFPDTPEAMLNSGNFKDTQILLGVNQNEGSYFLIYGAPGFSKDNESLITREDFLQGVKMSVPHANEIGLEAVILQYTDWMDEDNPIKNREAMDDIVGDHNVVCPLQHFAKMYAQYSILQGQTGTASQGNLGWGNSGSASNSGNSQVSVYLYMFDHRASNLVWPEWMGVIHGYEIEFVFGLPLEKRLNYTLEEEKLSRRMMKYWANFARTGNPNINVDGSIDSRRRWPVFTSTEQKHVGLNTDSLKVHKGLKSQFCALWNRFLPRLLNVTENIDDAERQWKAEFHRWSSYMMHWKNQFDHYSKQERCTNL", "test": "Acetylcholinesterase activity, Ellman assay after pre-incubation with inhibitor", "format": "biochemical", "conditions": "100 μM compound, 60 minutes at 25° C.; read-out: % Activity ± SD (acetylcholinesterase activity relative to enzyme incubated with solvent)", "method": "(§1) Acetylcholinesterase (from electric eel), butyrylcholinesterase (from horse serum), DTNB, butyrylthiocholine, acetylthiocholine, and BSA were purchased from Sigma. The dialkyl 2-chlorophenyl (and 4-chlorophenyl) phosphates were solubilized in reagent grade methanol.\n(§2) Cholinesterase activity measurements were performed essentially according to the method of Ellman (Biochemical Pharmacology 7:88-90, 1961). The composition of the assay mixture was 0.1 M sodium phosphate, pH 7.5, 0.033 M DTNB, 0.001 M MgCl2, and 100 μg/mL of BSA containing appropriate amounts of substrate and inhibitor. Each assay was initiated by the addition of substrate and the activity quantified by measuring the formation of the thionitrobenzoate anion at 412 nm at 37° C. Methanol used to solubilize the dialkyl phenyl phosphates [1% (v/v) final concentration] had no inhibitory effect on either enzyme.\n(§3) Butyrylcholinesterase was pre-incubated at room temperature with inhibitor in the assay cocktail minus substrate for varying periods of time at 25° C. Substrate was then added and the activity measured as described above. The relative rates of enzyme inactivation were determined by plotting enzyme activity versus time of pre-incubation with inhibitor. Results were expressed as the rate constant for the rate of enzyme inactivation. In the case of AcChase, results were expressed as the % of activity remaining relative to the enzyme incubated only with solvents.\nThe first series of experiments determined the effect of the dialkyl 2-chlorophenyl (and 4-chlorophenyl) phosphates on both AcChase and BuChase. None of the compounds had any inhibitory effect on AcChase (See Table 1). In Table 1, AcChase was incubated with 100 μM of the indicated phenyl phosphate for 60 minutes at 25° C. and then assayed as described above. Results were expressed as the % activity relative to enzyme incubated with solvent ±SD (standard deviation)."}, "BuChase": {"target": "T2, BuChase (Equus caballus, UniProt P81908)", "T2 construct": "butyrylcholinesterase (from horse serum); purchased Sigma; host or cells: horse serum (natural source)", "T2 sequence (P81908 whole entry)": "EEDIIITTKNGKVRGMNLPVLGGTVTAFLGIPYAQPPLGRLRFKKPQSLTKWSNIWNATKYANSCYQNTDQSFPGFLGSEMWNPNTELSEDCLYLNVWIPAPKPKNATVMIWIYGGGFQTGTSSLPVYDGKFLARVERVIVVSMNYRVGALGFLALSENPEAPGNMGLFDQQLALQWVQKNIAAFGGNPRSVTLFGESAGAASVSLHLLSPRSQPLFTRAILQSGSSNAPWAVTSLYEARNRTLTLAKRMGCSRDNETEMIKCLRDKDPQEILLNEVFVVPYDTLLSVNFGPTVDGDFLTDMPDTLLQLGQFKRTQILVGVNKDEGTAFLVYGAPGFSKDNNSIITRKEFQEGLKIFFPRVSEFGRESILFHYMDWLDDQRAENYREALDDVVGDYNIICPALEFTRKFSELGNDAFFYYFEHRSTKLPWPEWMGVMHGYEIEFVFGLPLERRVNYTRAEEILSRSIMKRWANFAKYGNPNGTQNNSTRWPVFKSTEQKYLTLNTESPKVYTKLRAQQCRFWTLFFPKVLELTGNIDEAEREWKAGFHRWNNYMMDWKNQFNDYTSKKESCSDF", "test": "MALDI-TOF of tryptic peptides of inhibitor-treated BuChase", "method": "BuChase was incubated with di-n-butyl-2-chlorophenyl phosphate. Excess inhibitor was removed and the enzyme was digested with trypsin. The tryptic peptides were then analyzed by MALDI-TOF. Unmodified peptide containing the active site serine (MW 2198.86) and modified peptide (MW 2390.9060) can be seen. […] Irreversible inhibitors usually covalently modify an enzyme, and inhibition cannot therefore be reversed."}, "hexokinase": {"tested_on": "hexokinase", "test": "Hexokinase activity (NADPH generation)", "format": "biochemical", "conditions": "10 μM, 60 min at 25° C.", "method": "The effect of DB2ClPP on hexokinase activity was assayed. Hexokinase was incubated with solvent, 10 mM iodoacetamide (a known hexokinase inhibitor), or 10 μM DB2CPP for 60 min at 25° C. Enzyme activity is given as the nmoles of NADPH generated per min at 25° C. Data shown are the mean of three replicates ±SEM. (FIG. 6)"}, "S6K2": {"target": "S6K2 (Homo sapiens, UniProt Q9UBS0)", "sequence (Q9UBS0 whole entry, looked up)": "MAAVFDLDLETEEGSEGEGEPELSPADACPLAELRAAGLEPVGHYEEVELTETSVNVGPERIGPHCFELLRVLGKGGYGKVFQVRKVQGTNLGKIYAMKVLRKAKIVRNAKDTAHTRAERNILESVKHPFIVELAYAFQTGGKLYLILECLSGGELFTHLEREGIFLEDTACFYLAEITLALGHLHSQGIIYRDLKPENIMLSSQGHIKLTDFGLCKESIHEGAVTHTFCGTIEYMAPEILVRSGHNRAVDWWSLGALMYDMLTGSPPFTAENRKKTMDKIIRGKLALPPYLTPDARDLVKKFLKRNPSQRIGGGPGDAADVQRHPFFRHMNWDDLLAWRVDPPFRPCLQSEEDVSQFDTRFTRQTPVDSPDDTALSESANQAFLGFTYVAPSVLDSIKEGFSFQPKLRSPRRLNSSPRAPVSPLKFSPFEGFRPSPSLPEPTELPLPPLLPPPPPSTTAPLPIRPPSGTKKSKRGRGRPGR", "test": "S6K2 activity (GST-S6 substrate, Pro-Q stain)", "format": "biochemical", "conditions": "varying concentrations, 30 minutes on ice, then ATP 30° C. 15 minutes", "method": "(§4) For protein kinase activity, histone was used as the substrate for protein kinase A (PKA) and glutathione-S-transferase-S6 (GST-S6) for S6K2. Enzyme was pre-incubated with substrate and varying concentrations of inhibitor on ice for 30 minutes. The control sample contained solvent (methanol). ATP was then added to each sample and the cocktail incubated at 30° C. for 15 minutes. Equal amounts of each mixture were fractionated by SDS-PAGE on a 10% acrylamide gel. The gel was fixed in 50% methanol/10% acetic acid, washed with water, and then stained in Pro-Q Stain in the dark for 60 minutes. The gel was then destained, washed, and scanned on a Typhoon Imager (FIG. 5)."}, "[2]": {"tested_on": "porcine umbilical stem cells", "format": "in vitro ADME", "method": "In addition, uptake of di-n-butyl-2-chlorophenyl phosphate by porcine umbilical stem cells was measured after 24 and 48 hours of culture (Table 5)."}, "Protein Kinase A (PKA)": {"tested_on": "Protein Kinase A (PKA)", "test": "Protein kinase A activity (histone substrate, Pro-Q stain)", "format": "biochemical", "conditions": "varying concentrations, 30 minutes on ice, then ATP 30° C. 15 minutes", "method": "as §4"}, "chymotrypsin": {"tested_on": "chymotrypsin", "test": "Chymotrypsin activity (ATEE hydrolysis)", "format": "biochemical", "conditions": "10 μM, 60 minutes at 25° C.", "method": "(§5) The effect of DB2ClPP on the activity of chymotrypsin was assayed. […] was incubated with solvent, 10 μM DB2CPP, or 10 μM PMSF (a known inhibitor of chymotrypsin) for 60 minutes at 25° C. to determine any inhibitory effect of DB2CPP on enzymatic activity. Enzyme activity is given as nmoles of ATEE hydrolyzed per minute at 25° C. Data shown are the mean of three replicates ±SEM. (FIG. 4)"}, "trypsin": {"tested_on": "trypsin", "test": "Trypsin activity (BAEE hydrolysis)", "format": "biochemical", "conditions": "10 μM, 60 minutes at 25° C.", "method": "as §5, with “DB2ClPP (di-n-butyl 2-chlorophenyl phosphate)” for “DB2ClPP”, “trypsin” for “chymotrypsin”, “DIFP” for “PMSF”, “trypsin)” for “chymotrypsin)”, “BAEE” for “ATEE”, “3)” for “4)”"}, "butyrylcholinesterase": {"target": "T3, butyrylcholinesterase (Equus caballus, UniProt P81908)", "T3 construct": "butyrylcholinesterase (from horse serum); purchased Sigma; host or cells: horse serum (natural source)", "T3 sequence (P81908 whole entry)": "as the sequence (P81908 whole entry) above", "test": "Reactivation of inactive butyrylcholinesterase", "format": "biochemical, horse", "method": "BuChase was incubated with excess di-butyl 2-chlorophenyl phosphate for 60 min at 4° C. The excess phosphate was removed using a desalting column. The inactivated BuChase was incubated at 4° C. for various periods of time and then assayed for activity. […]"}, "[3]": {"target": "T4, butyrylcholinesterase (from horse serum) (Equus caballus, UniProt P81908)", "T4 construct": "butyrylcholinesterase (from horse serum); purchased Sigma; host or cells: horse serum (natural source)", "T4 sequence (P81908 whole entry)": "as above", "test": "Rates of inactivation of butyrylcholinesterase, Ellman assay", "format": "biochemical", "conditions": "100 nM inhibitor, 25° C.", "method": "as §1, §2, §3\n. […] In Table 2, BuChase was incubated for increasing periods of time at 25° C. with 100 nM inhibitor then assayed for activity as described above. Rate constants were calculated from a plot of enzyme activity vs. time of inhibitor exposure. […]. Slopes were calculated by linear regression analysis."}}, "note": "Like-named read-outs stand apart in the source and are kept apart here.", "data": [{"compound": "CCCCOP(=O)(OCCCC)Oc1ccccc1Cl", "note": "[DB2ClPP, Di-n-butyl 2-chlorophenyl phosphate]", "values": [{"measurement": "activity at 100 µM", "setting": "[1]", "value": "97.6 ± 0.029", "unit": "%"}, {"measurement": "type of inhibition from covalent modification of active site serine peptide (FIG. 12)", "setting": "BuChase", "value": "likely an irreversible inhibitor"}, {"measurement": "effect on hexokinase activity (FIG. 6)", "setting": "hexokinase", "value": "none of the above mentioned enzymes were affected"}, {"measurement": "effect on S6K2 activity (FIG. 5)", "setting": "S6K2", "value": "none of the above mentioned enzymes were affected"}, {"measurement": "fg DB2Cl-PP/cell (±SEM)", "setting": "[2]; 0 hours", "value": "2.55 ± 0.011", "unit": "fg/cell"}, {"measurement": "fg DB2Cl-PP/cell (±SEM)", "setting": "[2]; 24 hours", "value": "11.57 ± 1.02", "unit": "fg/cell"}, {"measurement": "fg DB2Cl-PP/cell (±SEM)", "setting": "[2]; 48 hours", "value": "13.62 ± 0.003", "unit": "fg/cell"}, {"measurement": "effect on PKA activity (FIG. 5)", "setting": "Protein Kinase A (PKA)", "value": "none of the above mentioned enzymes were affected"}, {"measurement": "effect on chymotrypsin activity (FIG. 4)", "setting": "chymotrypsin", "value": "none of the above mentioned enzymes were affected"}, {"measurement": "effect on trypsin activity (FIG. 3)", "setting": "trypsin", "value": "none of the above mentioned enzymes were affected"}, {"measurement": "% Remaining Activity", "setting": "butyrylcholinesterase; 0 hours at 4° C. after removal of excess inhibitor", "value": 0.6, "unit": "%"}, {"measurement": "% Remaining Activity", "setting": "butyrylcholinesterase; 3.5 hours at 4° C. after removal of excess inhibitor", "value": 0.6, "unit": "%"}, {"measurement": "% Remaining Activity", "setting": "butyrylcholinesterase; 7 hours at 4° C. after removal of excess inhibitor", "value": 0.8, "unit": "%"}, {"measurement": "% Remaining Activity", "setting": "butyrylcholinesterase; 24 hours at 4° C. after removal of excess inhibitor", "value": 1.1, "unit": "%"}, {"measurement": "reactivation of inactivated BuChase", "setting": "butyrylcholinesterase; over 24 hours at 4° C.", "value": "no significant reactivation"}, {"measurement": "k, rate constant of inactivation of butyrylcholinesterase ± S.E.M", "setting": "[3]", "value": "64.76 ± 3.0", "unit": "min^−1 × 10^−2"}]}]}
